Square brackets hold non-standard residues; d marks the D form. Peptide text beside a SMILES is read from it. Gly(N-(CH2)6NH2) = NCCCCCCNCC(=O)O; Gly(N-2-aminoethyl) = NCCNCC(=O)O; Nspe = C[C@H](NCC(=O)O)c1ccccc1; Nphe = O=C(O)CNCc1ccccc1; Nlys = NCCCCNCC(=O)O
What was measured:
[1] = tested on: E. coli, P. aeruginosa, S. aureus and S. epidermidis; format: cell-based
Method in brief: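 Single colonies were grown 16–18 h at 37 °C in Iso-sensitest broth, brought to A650nm 0.07 and diluted tenfold. This inoculum met doubling dilutions of each peptoid (2–100 µM final), then incubated 16 h at 37 °C shaking before absorbance measurement.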

[2] = tested on: NIH 3T3 murine fibroblasts; set-up: method as in PMID 26849681; conditions: in vitro mammalian assays; cited from earlier work
[3] = set-up: method as in PMID 18287037; conditions: cited from earlier work

SMILES | MICs against the bacteria tested [1] | observed toxicity against NIH 3T3 murine fibroblasts [2] | 50% haemolytic dose (HD50) [3]
NCCCCCCNCC(=O)N(CC(=O)N(CC(=O)N(CCCCCCN)CC(=O)N(CC(=O)N(CC(N)=O)Cc1ccccc1)Cc1ccccc1)Cc1ccccc1)Cc1ccccc1 [Peptoid 3, (NahNpheNphe)2] (H-[Gly(N-(CH2)6NH2)][Nphe][Nphe][Gly(N-(CH2)6NH2)][Nphe][Nphe]-NH2) | 100 µM |  | 
NCCCCNCC(=O)N(CC(=O)N(CC(=O)N(CCCCN)CC(=O)N(CC(=O)N(CC(N)=O)Cc1ccccc1)Cc1ccccc1)Cc1ccccc1)Cc1ccccc1 [Peptoid 6, (NLysNpheNphe)2] (H-[Nlys][Nphe][Nphe][Nlys][Nphe][Nphe]-NH2) | 100 µM |  | 
NCCNCC(=O)N(CC(=O)N(CC(=O)N(CCN)CC(=O)N(CC(=O)N(CC(N)=O)Cc1ccccc1)Cc1ccccc1)Cc1ccccc1)Cc1ccccc1 [Peptoid 9, (NaeNpheNphe)2] (H-[Gly(N-2-aminoethyl)][Nphe][Nphe][Gly(N-2-aminoethyl)][Nphe][Nphe]-NH2) | 100 µM |  | 
C[C@@H](c1ccccc1)N(CC(N)=O)C(=O)CN(C(=O)CN(CCCCCCN)C(=O)CN(C(=O)CN(C(=O)CNCCCCCCN)[C@@H](C)c1ccccc1)[C@@H](C)c1ccccc1)[C@@H](C)c1ccccc1 [Peptoid 12, (NahNspeNspe)2] | 100 µM |  | 
C[C@@H](c1ccccc1)N(CC(N)=O)C(=O)CN(C(=O)CN(CCCCN)C(=O)CN(C(=O)CN(C(=O)CN(CCCCN)C(=O)CN(C(=O)CN(C(=O)CN(CCCCN)C(=O)CN(C(=O)CN(C(=O)CNCCCCN)[C@@H](C)c1ccccc1)[C@@H](C)c1ccccc1)[C@@H](C)c1ccccc1)[C@@H](C)c1ccccc1)[C@@H](C)c1ccccc1)[C@@H](C)c1ccccc1)[C@@H](C)c1ccccc1 [Peptoid 13, (NLysNspeNspe)4] (H-[Nlys][Nspe][Nspe][Nlys][Nspe][Nspe][Nlys][Nspe][Nspe][Nlys][Nspe][Nspe]-NH2) |  | 5.1 µM | 100 µM
C[C@@H](c1ccccc1)N(CC(N)=O)C(=O)CN(C(=O)CN(CCCCN)C(=O)CN(C(=O)CN(C(=O)CNCCCCN)[C@@H](C)c1ccccc1)[C@@H](C)c1ccccc1)[C@@H](C)c1ccccc1 [Peptoid 15, (NLysNspeNspe)2] (H-[Nlys][Nspe][Nspe][Nlys][Nspe][Nspe]-NH2) | 100 µM |  | 
C[C@@H](c1ccccc1)N(CC(N)=O)C(=O)CN(C(=O)CN(CCN)C(=O)CN(C(=O)CN(C(=O)CNCCN)[C@@H](C)c1ccccc1)[C@@H](C)c1ccccc1)[C@@H](C)c1ccccc1 [Peptoid 18, (NaeNspeNspe)2] | 100 µM |  | 
